Data taken from ChEMBL document CHEMBL1121990, “Synthesis and pharmacological activity of 6-aryl-2-azabicyclo[4.2.1]nonanes” (1982).

Test system: Mus musculus
Assay: Analgesic activity was determined after subcutaneous administration in mice using Eddy hot plate assay or Nilsen assay.
Type: functional
Conditions: sc

Row | Compound | ED50
1 | COc1cccc(C23CCCN(C)C(CC2)C3)c1.O=C(O)C(=O)O (stereo not drawn) | 5.7 mg/kg
2 | CN1CCCC2(c3ccccc3)CCC1C2.O=C(O)C(=O)O (stereo not drawn) | 11.7 mg/kg
3 | Br.CN1CCCC2(c3cccc(O)c3)CCC1C2 (stereo not drawn) | 16.2 mg/kg
4 | Br.Oc1cccc(C23CCCN(CCc4ccccc4)C(CC2)C3)c1 (stereo not drawn) | 4.5 mg/kg
5 | Br.C=CCN1CCCC2(c3cccc(OC)c3)CCC1C2 (stereo not drawn) | 20 mg/kg
6 | Br.COc1cccc(C23CCCNC(CC2)C3)c1 (stereo not drawn) | 4 mg/kg
7 | Br.COc1cccc(C23CCCN(CCc4ccccc4)C(CC2)C3)c1 (stereo not drawn) | 10.9 mg/kg
8 | COc1ccc2c3c1O[C@H]1[C@@H](O)C=C[C@H]4[C@@H](C2)N(C)CC[C@@]341.COc1ccc2c3c1O[C@H]1[C@@H](O)C=C[C@H]4[C@@H](C2)N(C)CC[C@@]341.O.O=P(O)(O)O.O=P(O)(O)O [CODEINE PHOSPHATE] | 6.8 mg/kg
